{"source": "patent US20130165734A1", "about": "“TIME-DOMAIN TRANSDUCTION SIGNALS AND METHODS OF THEIR PRODUCTION AND USE” (Nativis, Inc., priority 2009, published 2013)", "key": {"[1]": {"test_system": "U87 glioblastoma cells", "test": "intracranial U87 glioblastoma tumor study in mice", "type": "in vivo", "conditions": "tumor-bearing animals treated with taxol compound over the same 23 day period"}, "[2]": {"test": "observation of side effects in treated tumor-bearing animals", "type": "in vivo, mice", "conditions": "animals treated with taxol; preliminary observations", "excerpt": "Another potential advantage of signal therapy over the conventional drug therapy is the potential for reduced side effects."}, "[3]": {"test_system": "tubulin", "test": "electron microscopy of tubulin assay samples", "type": "biochemical", "conditions": "10 minutes exposure to 4 μM taxol", "excerpt": "The assay samples from above were examined by electron microscopy to confirm that the nature of the microtubule polymers formed in the assay, either by the addition of taxol or the taxol-derived time-domain signal. FIGS. 10A-10F are photo electron micrographs, taken at 21,000× and 52,000× magnification, of a tubulin suspension for untreated control (FIGS. 10A and 10B), cremaphore alone, FIGS. 10C, 10D), and the tubulin suspension exposed to the magnetic field of a white-noise signal. Each sample was allowed to incubate in the system cell for 10 minutes under the conditions described, then placed on ice and immediately after cooling, placed on an EM grid and fixed for with stain. No evidence of significant tubulin formation is observed in any of these samples.\nFIGS. 12A-12D show the morphology of the tubulin assay samples after 10 minutes exposure to 4 μM taxol, where the samples were cooled after 10 minutes and prepared for EM as above.\nFIGS. 13A-13D show the morphology of the tubulin assay samples after 10 minutes exposure to the above M2(3) taxol-derived time-domain signal. 4 μM taxol, where the samples were cooled after 10 minutes and prepared for EM as above."}, "[4]": {"test_system": "tubulin", "test": "in vitro tubulin polymerization (aggregation) assay, absorbance at 340 nm", "type": "biochemical", "conditions": "4 μM taxol, tubulin 1.5 mg/ml in GPEM buffer, first ten minutes", "description": "The M2(3) and a number of other high-score signals were tested for their ability to stabilize tubulin polymerization, employing the transduction system described above with reference to FIG. 7A. […] This assay has been described, for example, in Shelanski, M. L., Gaskin, F. and Cantor, C. R. (1973). Microtubule assembly in the absence of added nucleotides. Proc. Natl. Acad. Sci. U.S.A. 70, 765-768; and Lee, J. C. and Timasheff, S. N. (1977). In vitro reconstitution of calf brain microtubules: effects of solution variable. Biochemistry, 16, 1754-1762.\nThe M2(3) and a number of other high-score taxol signals were tested for their ability to stabilize tubulin polymerization. […] Change in optical absorption at 340 nm was measured continuously for each sample, and the OD340 data was used to calculate a rate of tubulin polymerization (dA/minute at 340 nm) at each one minute interval during the transduction study.\nThe results of the study, expressed as rate or tubulin polymerization over the first ten minutes of the study, are shown in FIGS. 9A and 9B."}}, "data": [{"smiles": "CC(=O)O[C@H]1C(=O)[C@@]2(C)[C@H]([C@H](OC(=O)c3ccccc3)[C@]3(O)C[C@H](OC(=O)[C@H](O)[C@@H](NC(=O)c4ccccc4)c4ccccc4)C(C)=C1C3(C)C)[C@]1(OC(C)=O)CO[C@@H]1C[C@@H]2O", "note": "[taxol, taxol (paclitaxel)]", "values": [{"measurement": "tumor volume result compared with signal treatment", "setting": "[1]", "value": "A similar result was seen"}, {"measurement": "side effects (activity, behavior, appetite)", "setting": "[2]", "value": "showed the expected signs of lethargy and loss of appetite"}, {"measurement": "morphology of tubulin assay samples (EM)", "setting": "[3]", "value": "A number of well-developed microtubular structures, including multi-lamellar structures are seen"}, {"measurement": "increase in absorbance (tubulin polymerization) over the tubulin control", "setting": "[4]", "value": "increased more than twofold"}]}]}
